Results: PubChem BioAssay AID1117286 (Broad Institute, 2014)
Inconclusive results are not listed. Calls of active or inactive are those of the source.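 The calls were made as follows: active = every test run gives a falling-signal AC50 no higher than twice the top tested dose; inconclusive = runs disagree, or a flat partial drop, or a poor fit; inactive = all runs inactive, including rising signal.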

Target: Endoplasmic reticulum aminopeptidase 2 (Homo sapiens) (UniProt Q6P179)
Experiment: ERAP2 aminopeptidase inhibitors, dose response, selectivity assay for selective ERAP1 modulator project, biochemical, plate reader, dry powder samples (AID 1117286)
Settings: Recombinant ERAP2, Arg-AMC cleavage fluorescence, 1 h

Chain of Endoplasmic reticulum aminopeptidase 2 (Homo sapiens) (Q6P179 whole entry, looked up): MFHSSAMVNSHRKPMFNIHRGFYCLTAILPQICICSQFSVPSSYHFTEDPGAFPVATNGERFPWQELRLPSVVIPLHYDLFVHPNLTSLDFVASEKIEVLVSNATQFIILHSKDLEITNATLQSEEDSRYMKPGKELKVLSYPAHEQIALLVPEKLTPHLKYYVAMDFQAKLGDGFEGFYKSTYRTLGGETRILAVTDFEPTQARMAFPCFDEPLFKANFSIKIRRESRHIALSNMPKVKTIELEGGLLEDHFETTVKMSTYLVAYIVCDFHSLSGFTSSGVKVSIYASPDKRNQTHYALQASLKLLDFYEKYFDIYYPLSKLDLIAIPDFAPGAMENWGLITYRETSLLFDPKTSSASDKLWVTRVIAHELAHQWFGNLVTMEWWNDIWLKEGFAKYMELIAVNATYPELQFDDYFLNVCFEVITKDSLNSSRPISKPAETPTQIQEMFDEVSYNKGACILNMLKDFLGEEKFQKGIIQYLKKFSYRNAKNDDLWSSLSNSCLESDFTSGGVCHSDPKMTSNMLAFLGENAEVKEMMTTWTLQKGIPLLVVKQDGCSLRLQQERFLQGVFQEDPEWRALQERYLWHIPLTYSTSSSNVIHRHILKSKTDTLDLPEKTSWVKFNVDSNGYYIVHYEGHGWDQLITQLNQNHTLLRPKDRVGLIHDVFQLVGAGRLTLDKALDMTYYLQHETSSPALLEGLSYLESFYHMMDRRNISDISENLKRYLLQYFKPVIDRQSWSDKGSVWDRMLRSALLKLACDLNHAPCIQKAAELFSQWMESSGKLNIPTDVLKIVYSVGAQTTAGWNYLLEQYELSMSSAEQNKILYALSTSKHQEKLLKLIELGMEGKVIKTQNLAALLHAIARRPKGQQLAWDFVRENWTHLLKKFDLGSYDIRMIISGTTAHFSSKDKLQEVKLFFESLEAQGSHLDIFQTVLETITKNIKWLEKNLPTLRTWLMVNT

AC50	SMILES
> 100 µM (inactive)	COc1ccc(C(=O)Nc2cc(C(F)(F)F)ccc2N2CCCCC2)cc1S(=O)(=O)O
> 100 µM (inactive)	CC(=O)N1CCN(C(=O)[C@@H]2CCN2C(=O)Nc2ccc(C)cc2)CC1

Same assay, conditions: Recombinant ERAP2, Arg-AMC cleavage fluorescence, 1 h; at 26 µM (top of the series)

activity change, negative = inhibition	SMILES
inactive	COc1ccc(C2=NN(c3ccc(C(=O)O)cc3)C(c3ccc(OC)c(OC)c3)C2)cc1 (configuration not stated)

Same assay, conditions: Recombinant ERAP2, Arg-AMC cleavage fluorescence, 1 h; at 50 µM (top of the series)

SMILES	activity change, negative = inhibition
CC(=O)N1CCN(C(=O)C2CCCN2C(=O)Nc2ccc(C)cc2)CC1 (configuration not stated)	inactive
COc1ccc(C(=O)O)cc1S(=O)(=O)Nc1cc(C)ccc1N1CCCCC1	inactive
COc1ccc(C(=O)O)cc1S(=O)(=O)Nc1ccccc1N1CCCCC1	inactive
COc1ccc(C(=O)O)cc1S(=O)(=O)Nc1cc(C(F)(F)F)ccc1N1CCCCC1	inactive
O=S(=O)(Nc1cc(C(F)(F)F)ccc1N1CCCCC1)c1cc(Cl)cc(Cl)c1	inactive
O=S(=O)(Nc1cc(C(F)(F)F)ccc1N1CCCCC1)c1ccc(F)cc1	inactive
COc1ccc(C(=O)Nc2cccc(C(F)(F)F)c2)cc1S(=O)(=O)O	inactive
O=S(=O)(Nc1cc(C(F)(F)F)ccc1N1CCCCC1)c1ccc(C(F)(F)F)cc1	inactive
COc1ccc(C(=O)O)cc1S(=O)(=O)Nc1cc(C(F)(F)F)ccc1N(C)C	inactive
COc1ccc(C(=O)Nc2cc(F)ccc2N2CCCCC2)cc1S(=O)(=O)O	inactive
COc1ccc(S(=O)(=O)Nc2cc(C(F)(F)F)ccc2N2CCCCC2)cc1	inactive
O=S(=O)(Nc1cc(C(F)(F)F)ccc1N1CCCCC1)c1ccc(Cl)cc1	inactive
O=[N+]([O-])c1cccc(S(=O)(=O)Nc2cc(C(F)(F)F)ccc2N2CCCCC2)c1	inactive
N#Cc1ccc(S(=O)(=O)Nc2cc(C(F)(F)F)ccc2N2CCCCC2)cc1	inactive
NC(=NCCc1c[nH]c2ccccc12)NS(=O)(=O)c1cc(F)ccc1F	inactive
Cn1cnc(S(=O)(=O)Nc2cc(C(F)(F)F)ccc2N2CCCCC2)c1	inactive
COc1ccc(C(=O)O)cc1S(=O)(=O)Nc1cc(F)ccc1N1CCCCC1	inactive
COc1ccc(C(=O)Nc2cc(C(F)(F)F)ccc2N2CCCC2)cc1S(=O)(=O)O	inactive
O=[N+]([O-])c1ccc(S(=O)(=O)Nc2cc(C(F)(F)F)ccc2N2CCCCC2)c([N+](=O)[O-])c1	inactive
O=S(=O)(Nc1cc(C(F)(F)F)ccc1N1CCCCC1)c1ccccc1	inactive
COc1ccc(C(=O)Nc2cc(C)ccc2N2CCCCC2)cc1S(=O)(=O)O	inactive
CC(=O)N1CCN(C(=O)C(C)(C)NC(=O)Nc2ccc(C)cc2)CC1	inactive
O=S(=O)(Nc1cc(C(F)(F)F)ccc1N1CCCCC1)c1ccc(-c2ccccc2)cc1	inactive
O=S(=O)(Nc1cc(C(F)(F)F)ccc1N1CCCCC1)c1ccc(Br)cc1	inactive
COc1ccc(C(=O)Nc2ccccc2N2CCCCC2)cc1S(=O)(=O)O	inactive
Cc1ccccc1S(=O)(=O)Nc1cc(C(F)(F)F)ccc1N1CCCCC1	inactive
COc1ccc(C(=O)O)cc1S(=O)(=O)Nc1cc(C(F)(F)F)ccc1N1CCOCC1	inactive
CC(=O)N1CCN(C(=O)CNC(=O)Nc2ccc(C)cc2)CC1	inactive
O=C(Nc1cc(C(F)(F)F)ccc1N1CCCCC1)c1ccc(S(=O)(=O)O)cc1	inactive

The remaining lines, values ahead:

activity change, negative = inhibition	SMILES
inactive	CC(=O)N1CCN(C(=O)C2(NC(=O)Nc3ccc(F)cc3)CCCCC2)CC1
inactive	Cc1ccc(NC(=O)NC2(C(=O)N3CCOCC3)CCCCC2)cc1
inactive	CC(=O)N1CCN(C(=O)C2(NC(=O)Nc3ccc(C(C)C)cc3)CCCC2)CC1
inactive	CC(=O)N1CCN(C(=O)C2(NC(=O)Nc3ccc(C(C)C)cc3)CCCCC2)CC1
inactive	CC(=O)N1CCN(C(=O)C2(NC(=O)Nc3ccc(Cl)cc3)CCCCC2)CC1
inactive	CC(=O)N1CCN(C(=O)C2(NC(=O)Nc3ccccc3C(F)(F)F)CCCCC2)CC1
inactive	CC(=O)N1CCN(C(=O)C2(NC(=O)Nc3ccccc3)CCCC2)CC1
inactive	CC(=O)N1CCN(C(=O)C2(NC(=O)Nc3ccc(C)cc3)CCCCC2)CC1
inactive	CC(=O)N1CCN(C(=O)C2(NC(=O)NCCc3ccccc3)CCCCC2)CC1
inactive	COc1ccc(NC(=O)NC2(C(=O)N3CCN(C(C)=O)CC3)CCCCC2)cc1
inactive	CC(=O)N1CCN(C(=O)C2(NC(=O)Nc3ccc(F)cc3)CCCC2)CC1
inactive	CC(=O)N1CCN(C(=O)C2(NC(=O)Nc3ccccc3F)CCCCC2)CC1
inactive	Cc1ccc(NC(=O)NC2(C(=O)N3CCN(c4ccccc4)CC3)CCCCC2)cc1
inactive	COc1cccc(NC(=O)NC2(C(=O)N3CCN(C(C)=O)CC3)CCCCC2)c1
inactive	CC(=O)N1CCN(C(=O)C2(NC(=O)Nc3ccccc3)CCCCC2)CC1
inactive	Cc1ccc(NC(=O)NC2(C(=O)N3CCNCC3)CCCCC2)cc1
inactive	CC(=O)N1CCN(C(=O)C2(NC(=O)Nc3cccc(F)c3)CCCCC2)CC1
inactive	CC(=O)N1CCN(C(=O)C2(NC(=O)Nc3cccc(C(F)(F)F)c3)CCCCC2)CC1
inactive	CC(=O)N1CCN(C(=O)C2(NC(=O)Nc3ccc(C(F)(F)F)cc3)CCCC2)CC1
inactive	CC(=O)N1CCN(C(=O)C2(NC(=O)NC(C)(C)C)CCCCC2)CC1
